Experimental data published in US10307355B2, “N-aralkylcarbonyldiamine compounds and personal care compositions comprising the same” (Conopco, Inc., priority 2015, dated 2019).

Target: T1, human M3 receptor (Homo sapiens, UniProt P20309)
T1 construct: expressed in transfected cells; host or cells: CHO cells (membrane suspension)
Test: Muscarinic 3 receptor binding assay (3H-scopolamine displacement, CHO cell membranes)
Details: inhibition of 3H-scopolamine binding to CHO cell suspension expressing the human M3 receptor
Experimental: The muscarinic 3 receptor binding assay was adapted from Perkin Elmer. […] Atropine (Sigma-Aldrich, St. Louis, Mo.) was used as a positive control. […] The binding reactions were terminated by filtering through the GFC plates and washing & filtering with ice-cold phosphate saline buffer (5×100 μL). Once the filters were dry, microscint scintillation cocktail (100 μL) was added to each well, allowed to sit for 20 min and the plates analyzed using a TopCount scintillation counter. […] Curve fitting of % inhibition versus concentration using Excell software allowed determination of IC50 values for test compounds.

T1 sequence (P20309 whole entry): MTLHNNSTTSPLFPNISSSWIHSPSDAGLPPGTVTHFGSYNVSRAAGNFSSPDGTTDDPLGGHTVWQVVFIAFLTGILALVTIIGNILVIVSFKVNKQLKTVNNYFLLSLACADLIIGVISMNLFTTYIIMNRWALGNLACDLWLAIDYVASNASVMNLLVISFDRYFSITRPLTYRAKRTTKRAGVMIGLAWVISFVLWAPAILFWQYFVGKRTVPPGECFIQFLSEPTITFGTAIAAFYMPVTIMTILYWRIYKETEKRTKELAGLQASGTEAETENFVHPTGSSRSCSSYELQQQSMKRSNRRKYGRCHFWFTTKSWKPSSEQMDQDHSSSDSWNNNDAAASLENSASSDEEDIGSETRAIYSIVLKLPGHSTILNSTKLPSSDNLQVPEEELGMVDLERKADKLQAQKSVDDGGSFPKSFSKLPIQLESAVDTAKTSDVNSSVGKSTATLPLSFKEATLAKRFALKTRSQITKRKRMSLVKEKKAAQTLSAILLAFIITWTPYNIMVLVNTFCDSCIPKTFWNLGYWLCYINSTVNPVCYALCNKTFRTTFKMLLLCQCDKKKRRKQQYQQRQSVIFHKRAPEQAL

- IC50: 3.3 µM
Structure (SMILES): CN(C)CCN(C)C(=O)C(c1ccccc1)C1CCCC1 (stereo not shown) [Compound 3c]
